Three sequences from patent US9708397B2, “Treatment of vasculoproliferative conditions with Lrg1 antagonists” (UCL Business PLC, priority 2010, dated 2017) can be followed below.

In the experiment the test system is Lrg1/TGFβ1 induced Smad5 phosphorylation. Description: TGFβ-induced Smad5 phosphorylation in Lrg1 over-expressing GPNT endothelial cells. In kind it is cell-based, rat. The settings on record: 5 ng/ml TGFβ, co-treatment. An excerpt:
We next established whether we could block endothelial Smad5 phosphorylation induced by TGFβ with either an anti-Lrg1 antibody or by peptide sequences derived from Lrg1. Peptides derived from the leucine-rich repeat regions of the Lrg1 sequence (L1-24 and L169-192 of Appendix 2 (SEQ ID NOS:3-4) or L94-117 and L262-285 of Appendix 3 (SEQ ID NOS:3-4)), which are believed to be involved in protein-protein interactions, and from the highly conserved leucine-rich C-terminal domain (L227-252 of Appendix 2 (SEQ ID NO:5) or L320-345 of Appendix 3 (SEQ ID NO:5)) were generated (Appendix 2). […] Treatment of control cells with 5 ng/ml TGFβ results in a significant increase in Smad5 phosphorylation.

Take “KMFSQNDTRCAGPEAVKGQTLLAVAK (listed as Homo sapiens) [L227-252]”: the “effect on Smad5 phosphorylation” value is reported as “dramatic inhibitory effect”. Further, the “effect on Smad5 phosphorylation” value (listed as Lrg1 blocking peptide derived from the C-terminus) is recorded as “inhibits”.
Turning to “LDMLDLSNNSLASVPEGLWASLGQ (listed as Homo sapiens) [L169-192, Peptide from a leucine-rich repeat region of human Lrg1]”, the “effect on Smad5 phosphorylation” value is reported as “partial effect”.
With “LQELHLSSNGLESLSPEFLRPVPQ (listed as Homo sapiens) [L1-24, Peptide from a leucine-rich repeat region of human Lrg1]”, the “effect on Smad5 phosphorylation” value was “no effect”.
